Source: article PMC5813016 (Nature Communications, 2018)
Where “and” joins values, the source holds several entries; their conditions need not be identical. Equal values may be shown once.

Tests used:
cynomolgus monkeys = assay: Monkey spontaneous eye blink rate (EBR); type: in vivo, Macaca fasicularis; conditions: cynomolgus monkey; for EBR response on repeated daily dosing (3 days): n = 3, A-77636 s.c., PF-2334 oral 0.6 + 0.3 mg/kg
Method: Increase in spontaneous EBR has been previously shown with D1 agonists and partial agonists. To confirm the specificity of the response in our particular assay set up for D1 activation, we verified that the D1 receptor antagonist SCH-39166 fully blocks the increased eye blink response of non-catechol full D1 agonist that is a close structural analog of the compounds in this paper (data not shown). All procedures involving animals were conducted with approval of the Pfizer Institutional Animal Care and Use Committee (Groton, CT) and compliant with the regulations and standards of the Animal Welfare Act (9CFR2, 9CFR3). Three male Cynomolgus macaques (Macaca fasicularis) of Mauritian origin, 7–10 years old, SPF for CHV-1, SIV, STLV1 and SRV 1, 2, 5 were used. Animals were exposed to 12 h light/dark cycle (lights on 6:00 AM – 6:00 PM). […] EBRS were recorded from chaired animals for 2 min at 10 min intervals by a trained observer through direct visual observation who was blinded to experimental conditions. Animals were chaired at approximately 7:30 AM. After vehicle or compound administration, eye blinks were recorded during the following intervals: from 10 to 50 min (0–1 h), 130 to 170 min (2–3 h), 310 to 350 min (5–6 h). Animals were returned to their home cages between two consecutive sessions and after the final recording of the day. Blood samples (1 ml) were collected from the femoral vein at 1 and 5 h after the first dose to quantitate plasma compound levels. […] A77636 was dissolved in 0.9% sterile saline, formulated fresh prior to administration, and given once per day for 3 days. […] Vehicle control was administered on day 0.
EBR data were first converted to blinks per minute. EBR were averaged by binning into 3 periods: Period 1 (0–1 h after the first dose) EBR = mean of 10, 20, 30, 40, and 50 min recordings; Period 2 (2–3 h after the first dose) EBR = mean of 130, 140, 150, 160, and 170 min recordings; Period 3 (5–6 h after the first dose) EBR = mean of 310, 320, 330, 340, and 350 min recordings. For Fig. 5c EBR data were averaged by binning data from periods 1 through 3 as daily EBR. Data from each animal was then normalized to their respective Day 1 EBR and expressed as percent of Day 1 EBR for each drug. EBR data were analyzed with SAS® 9.4 (SAS Institute Inc. Cary, NC) using a mixed linear model (Mixed Procedure) for repeated measures. The model included treatment, day, time period, and their interactions as fixed effects, and animal and animal-by-day interaction as random effects. A first order autoregressive model was used for longitudinal covariance structure. Differences between least squares means across days, overall and for each time period, were tested and adjusted for multiple comparisons via Tukey method. […]

[1] = Rat pharmacokinetic studies; type: in vivo, Wistar Hannover rat; conditions: for plasma concentration profile after oral administration: compared with SKF-38393; for clearance / Vd / bioavailability / half-life: male, Wistar Hannover, plasma; for clearance / Vd: iv; for Vd: read-out: Vdss; for bioavailability: oral bioavailability; for half-life: read-out: t½ (converted)
Method: Rat pharmacokinetic studies were conducted at BioDuro, Pharmaceutical Product Development, Inc. (Shanghai, China). Wistar Hannover rats (227–293 gram weight) were obtained from Vital River Laboratories (China). All animal studies were conducted in accordance with the Pfizer Institutional Animal Care and Use Committee (Groton, CT), using protocols approved by Pfizer PDM′s Global BA Committee (2009). Jugular vein-cannulated male Wistar Hanover rats were maintained on a 12 h light/dark cycle for a minimum of three days in a temperature-controlled and humidity-controlled environment with free access to food and water. Individual animals (n = 2 or 3 per dose/route) were administered a single dose of compound by either intravenous injection via tail vein or oral gavage based on body weight. […] The PF-6142 intravenous dose (1 mg/kg) was formulated in saline acidified with three molar equivalents of 1 N hydrochloric acid and the PF-6142 oral dose (5 mg/kg) was formulated in 0.5% methylcellulose. […] Formulations were agitated until all of the test article was dissolved. […] From each rat, serial blood samples were collected via jugular vein cannula prior to dose administration and at the following time points post-dose: 0.033 (i.v. only), 0.083, 0.25, 0.5, 1, 2, 4, 7, and 24 h. […] All blood samples were placed on wet ice until centrifugation. Following centrifugation, the plasma was transferred to polypropylene tubes and stored frozen at either −20 °C to −80 °C until analysis. Urine was collected from all intravenous-dosed rats into collection tubes from the collection intervals of 0–7 h and 7–24 h post-dose. […] All urine samples were stored at −80 °C until analysis. All samples were processed for quantitation of compound concentrations using protein precipitation methodology followed by analysis using liquid chromatography-tandem mass spectrometry (LC-MS/MS). […] The pharmacokinetic parameters (including those in Supplementary Table 3) were computed by non-compartmental analysis[61] using Watson Bioanalytical LIMS version 7.4 (Thermo Fischer Scientific, CA).

human D1R S199A mutant = assay: cAMP assay, D1R mutant S199A; conditions: relative to wild-type D1R; each table line is one experiment (Experiment # 1-6)
human D1R Y194F mutant = assay: cAMP assay, D1R mutant Y194F; conditions: relative to wild-type D1R; each table line is one experiment (Experiment # 1-6)
human D1R S198A mutant = assay: cAMP assay, D1R mutant S198A; conditions: relative to wild-type D1R; each table line is one experiment (Experiment # 1-6)

SMILES | EBR response on repeated daily dosing (3 days) (cynomolgus monkeys) | plasma concentration profile after oral administration [1] | clearance [1] [mL/min/kg] | Vd [1] [L/kg] | bioavailability [1] [%] | half-life [1] [min] | fold shift of cAMP functional potency, S199A (EC50 mutant/ EC50 WT) (human D1R S199A mutant) | fold shift of cAMP functional potency, Y194F (EC50 mutant/ EC50 WT) (human D1R Y194F mutant) | fold shift of cAMP functional potency, S198A (EC50 mutant/ EC50 WT) (human D1R S198A mutant) | increase of spontaneous EBR over baseline after single dose (cynomolgus monkeys; A-77636 s.c. (0.1 mg/kg as printed elsewhere in the source), PF-2334 oral 0.6 mg/kg + 0.3 mg/kg 8 h later)
Cc1n[nH]c(=O)c(C)c1-c1ccc(Oc2nccc3occc23)cc1F [PF-2334] | sustained after multiple days of dosing | more sustained plasma concentration profiles | 20.8 | 1.2 | 57.2 | 48 |  |  |  | 
Cc1cc(Oc2nccc3occc23)ccc1-c1c(C)ncnc1C [PF-8871] |  |  |  |  |  |  | 4.3 | 1.3 |  | 
Cc1cc(Oc2nccc3occc23)ccc1-c1c(C)ncc2nccn12 [PF-6142] |  | more sustained plasma concentration profiles | 42.5 | 2.4 | 85.4 | 66 | 8.7 and 10.0 |  | 6.0 and 7.0 and 6.4 and 7.5 | 
NC[C@@H]1O[C@H](C23CC4CC(CC(C4)C2)C3)Cc2c1ccc(O)c2O [A-77636, reference compound] | progressively and significantly attenuated with each dosing day |  |  |  |  |  |  |  |  | 2–3 fold
